Source: patent publication US11192889B2, “Tetrahydronaphthyridinepentanamide integrin antagonists” (The Rockefeller University, priority 2016, dated 2021)
Values joined by “and” are separate entries in the source; they are usually repeats but may differ in a detail not shown here. Identical values can stand only once.

Legend:
HEK-293-αVβ3 cells [1] = target: T1, HEK-293-αVβ3 cells (Homo sapiens, UniProt P05106+P06756); assay: αVβ3 Cell Adhesion to Fibrinogen Assay; type: cell-based; set-up: IC50; other: dose reducing by 50% the adhesion of HEK-293-αVβ3 cells to fibrinogen; untreated cells 100% adhesion, 10 mM EDTA 0%; conditions: dose reducing by 50% the adhesion of HEK-293-αVβ3 cells to fibrinogen; separate determinations listed
T1 sequence (P05106 whole entry): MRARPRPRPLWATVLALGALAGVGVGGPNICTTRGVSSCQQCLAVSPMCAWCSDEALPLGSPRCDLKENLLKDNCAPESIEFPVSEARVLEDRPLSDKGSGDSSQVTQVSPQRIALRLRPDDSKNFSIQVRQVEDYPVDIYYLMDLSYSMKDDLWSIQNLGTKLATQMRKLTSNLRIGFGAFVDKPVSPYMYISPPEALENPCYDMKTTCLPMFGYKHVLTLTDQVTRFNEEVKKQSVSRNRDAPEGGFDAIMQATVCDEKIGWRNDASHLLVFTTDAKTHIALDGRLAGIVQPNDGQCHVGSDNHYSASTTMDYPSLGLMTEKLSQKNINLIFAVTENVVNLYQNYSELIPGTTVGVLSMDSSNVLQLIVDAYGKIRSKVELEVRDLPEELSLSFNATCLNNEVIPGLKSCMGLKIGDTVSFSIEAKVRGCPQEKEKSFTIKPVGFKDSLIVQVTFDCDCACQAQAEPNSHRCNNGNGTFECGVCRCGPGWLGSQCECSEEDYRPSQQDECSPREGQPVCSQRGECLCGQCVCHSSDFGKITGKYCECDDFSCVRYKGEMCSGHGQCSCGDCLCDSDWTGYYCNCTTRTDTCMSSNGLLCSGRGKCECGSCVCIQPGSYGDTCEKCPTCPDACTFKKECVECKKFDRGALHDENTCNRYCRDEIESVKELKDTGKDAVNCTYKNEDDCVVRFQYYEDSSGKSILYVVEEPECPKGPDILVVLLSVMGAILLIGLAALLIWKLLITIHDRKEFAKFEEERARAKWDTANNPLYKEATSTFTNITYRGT
T1 sequence (P06756 whole entry): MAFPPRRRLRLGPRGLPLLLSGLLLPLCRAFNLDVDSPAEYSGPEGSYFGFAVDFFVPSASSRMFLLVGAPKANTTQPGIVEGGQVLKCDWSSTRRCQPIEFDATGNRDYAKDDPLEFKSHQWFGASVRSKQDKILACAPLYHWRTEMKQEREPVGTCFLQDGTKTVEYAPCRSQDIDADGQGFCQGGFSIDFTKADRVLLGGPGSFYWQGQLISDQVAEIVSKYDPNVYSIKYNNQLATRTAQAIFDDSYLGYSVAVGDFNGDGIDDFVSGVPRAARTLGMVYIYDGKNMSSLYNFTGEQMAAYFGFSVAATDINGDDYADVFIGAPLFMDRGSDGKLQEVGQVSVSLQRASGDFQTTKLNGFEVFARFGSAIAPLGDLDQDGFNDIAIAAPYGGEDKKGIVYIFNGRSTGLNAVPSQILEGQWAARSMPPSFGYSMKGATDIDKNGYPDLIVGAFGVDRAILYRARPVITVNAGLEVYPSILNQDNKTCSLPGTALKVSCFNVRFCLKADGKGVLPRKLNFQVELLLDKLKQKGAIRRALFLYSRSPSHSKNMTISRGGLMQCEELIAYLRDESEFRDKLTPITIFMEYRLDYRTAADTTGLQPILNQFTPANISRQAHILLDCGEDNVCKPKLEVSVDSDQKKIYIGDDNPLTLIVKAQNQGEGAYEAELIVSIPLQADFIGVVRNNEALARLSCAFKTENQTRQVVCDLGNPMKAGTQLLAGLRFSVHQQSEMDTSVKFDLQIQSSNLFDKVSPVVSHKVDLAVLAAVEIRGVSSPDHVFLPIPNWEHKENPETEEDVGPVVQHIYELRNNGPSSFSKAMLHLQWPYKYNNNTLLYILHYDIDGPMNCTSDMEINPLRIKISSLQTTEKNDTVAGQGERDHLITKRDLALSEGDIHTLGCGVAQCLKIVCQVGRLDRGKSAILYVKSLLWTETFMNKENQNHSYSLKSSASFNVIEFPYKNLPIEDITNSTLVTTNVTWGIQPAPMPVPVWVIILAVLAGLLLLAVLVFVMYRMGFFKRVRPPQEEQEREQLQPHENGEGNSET
Text: (§1) HEK-293 Cells Expressing αVβ3. HEK-293 cells were transfected using lipofectamine 2000 (Invitrogen #11668030) with the cDNA for αV using the pEF1/V5-His A vector and the cDNA for β3 using the vector pcDNA3.1. Cells expressing αVβ3 were identified by their reaction with murine monoclonal antibodies (mAbs) LM609 and 7E3, and stable cell lines were established by repetitive sorting using LM609. […] HEK-293-αVβ3 cells for assays are counted in an automated cell counter (ADVIA 120) and adjusted to values appropriate for each assay.
αVβ3 Cell Adhesion to Fibrinogen Assay. Polystyrene 96-well microtiter plates (Costar, 3590) are precoated with 3.5 μg/mL of purified fibrinogen (Enzyme Research Laboratories) in 0.15 M NaCl, 0.01 M Tris/HCL, pH 7.4 for 1 hour at 37° C. The wells are then washed and incubated with HEPES-Buffered Modified Tyrode's solution (HBMT; 0.128 M NaCl, 10 mM HEPES, 12 mM NaHCO3, 0.4 mM NaH2PO4, 2.7 mM KCl, 0.35% bovine serum albumin (Fisher), 0.1% glucose, pH 7.4) for 1 hour at room temperature or overnight at 4° C. Wells are washed with HBMT containing 1 mM Mg2+ and 2 mM Ca2+ and then 50 μL of HEK-293-αVβ3 cells that have been pretreated with the compound to be tested for 20 minutes at room temperature are added to each well at a concentration of 3,000 cells/μL. After 30-32 minutes the wells are washed with HBMT containing Ca2+ and Mg2+ three times and then the adherent cells are lysed and the acid phosphatase activity that is released is measured by: 1. adding phosphatase substrate (Sigma EC 224-246-5) at 2 mg/mL in 0.1 M Na citrate, pH 5.6, 0.1% triton X-100 for 1 hour at room temperature; 2. stopping the reaction by adding 50 μL of 2 M NaOH; and 3. analyzing the samples in a spectrophotometer at 405 nm. In each assay, 10 mM EDTA is used as a positive control and untreated cells are used as a negative control. The IC50 is the dose of test compound that reduces by 50% the adhesion of the HEK-293-αVβ3 cells, taking the results with untreated cells as 100% and the results in the presence of EDTA as 0%. In some instances more than one IC50 determination was made, in which case, results of separate determinations are reported. IC50's were not determined for all compounds in the table; for some of these test compounds the inhibition at specific doses are reported. In some instances, the test compound produced a greater reduction than 10 mM EDTA, and these are shown as negative numbers.

HEK-293-αVβ3 cells [2] = target: T1, HEK-293-αVβ3 cells; assay: AP5 Binding Assay; type: cell-based; conditions: for activation at 10 µM: read-out: AP5 expression induced at the highest concentration; for EC50: concentration inducing 50% of the AP5 expression induced by 1 μM cilengitide
Text: as §1
AP5 Binding Assay. HEK-293-αVβ3 cells are harvested using 0.05% trypsin 0.5 mM EDTA, washed with HBMT once, and resuspended in HBMT containing 1 mM Mg2+ and 2 mM Ca2+. The cells are counted and adjusted to 0.5×10^6 cells per sample. The compound to be tested and fluorescently labeled mAb AP5 (either Alexa 488 or Alexa 674; 10 μg/mL) are added and incubated for 30 minutes at 37° C. The cells are then washed and analyzed by flow cytometry (BD FACSCalibur) at the appropriate wavelength for detecting the AP5 fluorophore. In each assay, cilengitide (1 μM) and 10 mM EDTA are included as positive controls and untreated cells are used as the negative control. The concentration of the test compound required to induce the expression of 50% of the AP5 expression induced by cilengitide is calculated and defined as the EC50. The EC50 for cilengitide was determined based on the expression induced by EDTA.

[3] = @10 μM, relative to AP5 expression induced by cilengitide

| SMILES | IC50 (HEK-293-αVβ3 cells [1]) | activation at 10 µM (HEK-293-αVβ3 cells [2]; [3]) [%] | EC50 (HEK-293-αVβ3 cells [2]) [nM] | AP5 expression induced at the highest concentration (HEK-293-αVβ3 cells [2]; [3]) [%] |
| --- | --- | --- | --- | --- |
| O=C(CCCCc1ccc2c(n1)NCCC2)NCCC(C(=O)O)c1ccccc1 (stereo not shown) [Example 9, 2-Phenyl-4-[5-(5,6,7,8-tetrahydro-1,8-naphthyridin-2-yl)pentanoylamino]butanoic acid] | 3720 nM and 1770 nM | 11 | > 10000 | – |
| O=C(CCCCc1ccc2c(n1)NCCC2)NCCC(NC(=O)OCc1ccccc1F)C(=O)O (stereo not shown) [Example 65] | 120 nM | 13 | > 10000 | – |
| O=C(CCCCc1ccc2c(n1)NCCC2)NCCC(NC(=O)c1nc2ccccc2s1)C(=O)O (stereo not shown) [Example 75, 2-(1,3-benzothiazole-2-carbonylamino)-4-[5-(5,6,7,8-tetrahydro-1,8-naphthyridin-2-yl)pentanoylamino]butanoic acid] | < 100 nM and 54.6 nM and 65.1 nM | 9 | > 10000 | – |
| O=C(CCCCc1ccc2c(n1)NCCC2)NCCC(NC(=O)OCCc1ccccc1)C(=O)O (stereo not shown) [Example 61] | 586 nM | 14 | > 10000 | – |
| COC(=O)NC(CCNC(=O)CCCCc1ccc2c(n1)NCCC2)C(=O)O (stereo not shown) [Example 36] | < 100 nM | 12 | > 10000 | – |
| O=C(CCCCc1nc2c(cc1C1CC1)CCCN2)NCCC(Nc1nc2ccccc2o1)C(=O)O (stereo not shown) [Example 83, 2-(1,3-benzoxazol-2-ylamino)-4-[5-(3-cyclopropyl-5,6,7,8-tetrahydro-1,8-naphthyridin-2-yl)pentanoylamino]butanoic acid] | 128 nM | 5 | > 10000 | – |
| O=C(CCCCc1ccc2c(n1)NCCC2)NCC[C@H](Nc1nc2ccccc2o1)C(=O)O [Example 87, (2S)-2-(1,3-benzoxazol-2-ylamino)-4-[5-(5,6,7,8-tetrahydro-1,8-naphthyridin-2-yl)pentanoylamino]butanoic acid] | 187 nM | 14 | > 10000 | – |
| O=C(CCCCc1ccc2c(n1)NCCC2)NCCC(NC(=O)c1ccccn1)C(=O)O (stereo not shown) [Example 25] | < 100 nM | 16 | > 10000 | – |
| O=C(O)CCCNC(=O)CCCCc1ccc2c(n1)NCCC2 [Example 1, 4-[5-(5,6,7,8-tetrahydro-1,8-naphthyridin-2-yl)pentanoylamino]butanoic acid] | 1350 nM | – | > 100000 | – |
| O=C(CCCCc1ccc2c(n1)NCCC2)NCCC(C(=O)O)c1cnc2ccccc2c1 (single isomer, unassigned) [Example 89, 2-(3-quinolyl)-4-[5-(5,6,7,8-tetrahydro-1,8-naphthyridin-2-yl)pentanoylamino]butanoic acid] | 106 nM | – | > 10000 | 27 |
| O=C(CCCCc1ccc2c(n1)NCCC2)NCCC(Nc1nc2ccccc2s1)C(=O)O (stereo not shown) [Example 70, 2-(1,3-Benzothiazol-2-ylamino)-4-[5-(5,6,7,8-tetrahydro-1,8-naphthyridin-2-yl)pentanoylamino]butanoic acid] | 525 nM | 6 | > 10000 | – |
| O=C(CCCCc1ccc2c(n1)NCCC2)NCCC(NC(=O)c1nc2ccccc2n1CC1CC1)C(=O)O (stereo not shown) [Example 73, 2-[[1-(cyclopropylmethyl)benzimidazole-2-carbonyl]amino]-4-[5-(5,6,7,8-tetrahydro-1,8-naphthyridin-2-yl)pentanoylamino]butanoic acid] | 502 nM and 142 nM | 2.5 | > 10000 | – |
| O=C(CCCCc1ccc2c(n1)NCCC2)NCC[C@@H](Nc1ncc(-c2ccccc2)cn1)C(=O)O [Example 91, (R)-2-((5-phenylpyrimidin-2-yl)amino)-4-(5-(5,6,7,8-tetrahydro-1,8-naphthyridin-2-yl)pentanamido)butanoic acid] | 534 nM | – | > 10000 | – |
| COc1ccc(C(CCNC(=O)CCCCc2ccc3c(n2)NCCC3)C(=O)O)cn1 (stereo not shown) [Example 79, 2-(6-methoxy-3-pyridyl)-4-[5-(5,6,7,8-tetrahydro-1,8-naphthyridin-2-yl)pentanoylamino]butanoic acid] | 532 nM | 19 | > 10000 | – |
